Consider 46 compounds from ChEMBL document CHEMBL5543061, “Recent advances of antitumor leading compound Erianin: Mechanisms of action and structural modification” (Eur J Med Chem, 2023).

The subject of test [1] is HCT-116. The test is described as follows: Growth inhibition of human HCT-116 cells measured for 48 hrs by SRB assay. Type of test: functional. In general terms: Sulforhodamine B stains cellular protein and so reports cell mass.
The test system of test [2] is HCT-116. Kind of test: Growth inhibition of human HCT-116 cells. It counts as functional.
Test [3] deals with HCT-116. The test is described as follows: Cytotoxicity against human HCT-116 cells assessed as reduction in cell viability incubated for 72 hrs by MTS assay. Type of test: functional, cell-based. As to conditions: HCT-116, 72 h. On the technique in general: Formazan colour is commonly taken as a measure of viable cells.
The test system of the next test is A2780. The test is described as follows: Cytotoxicity against human A2780 cells assessed as reduction in cell viability incubated for 72 hrs by MTS assay. Type of test: functional, cell-based. As to conditions: A2780, 72 h.
The next test deals with MIA PaCa-2. The test is described as follows: Cytotoxicity against human MIA PaCa-2 cells assessed as reduction in cell viability incubated for 72 hrs by MTS assay. Type of test: functional, cell-based. As to conditions: MIA PaCa-2, 72 h.
The next test concerns K562. The test is described as follows: Cytotoxicity against human K562 cells assessed as reduction in cell viability incubated for 72 hrs by MTS assay. Type of test: functional, cell-based. As to conditions: K562, 72 h.
The next test has as its system JIMT-1. The test is described as follows: Antiproliferative activity against human JIMT-1 cells assessed as reduction in cell viability incubated for 72 hrs by MTS assay. As to conditions: JIMT-1, 72 h. It counts as functional, cell-based.
The next test relates to A2780cisR. Kind of test: Antiproliferative activity against human cisplatin-resistant A2780 cells assessed as reduction in cell viability incubated for 72 hrs by MTS assay. Type of test: functional, cell-based.
The test system of test [4] is HeLa. Kind of test: Cytotoxicity against human HeLa cells assessed as reduction in cell growth incubated for 72 hrs by MTT assay. It counts as functional, cell-based.
The subject of test [5] is HepG2. Kind of test: Antiproliferative activity against human HepG2 cells assessed as reduction in cell growth. It counts as functional, cell-based.
Test [6] concerns HepG2. The test is described as follows: Antiproliferative activity against human HepG2 cells assessed as inhibition of cell growth relative to control. Type of test: functional. On the set-up: scale not given: the % may be the effect or the level left.
The test system of a further test is HL-60. Kind of test: Cytotoxicity against human HL-60 cells assessed as reduction in cell viability incubated for 48 hrs by MTT assay. It counts as functional, cell-based. As to conditions: HL-60, 48 h.
Test [7] has as its system HeLa. Kind of test: Antiproliferative activity against human HeLa cells assessed as reduction in cell viability by MTT assay. It counts as functional, cell-based.
The subject of test [8] is HeLa. The test is described as follows: Cytotoxicity against human HeLa cells assessed as reduction in cell viability after 72 hrs by MTS assay. It counts as functional, cell-based.
In test [9] the test system is HepG2. The test is described as follows: Cytotoxicity against human HepG2 cells. Type of test: functional, cell-based.
Test [10] has as its system HeLa. Kind of test: Antiproliferative activity against human HeLa cells assessed cell growth reduction incubated for 48 hrs by MTT assay. It counts as functional, cell-based.
Test [11] has as its system HepG2. Kind of test: Anticancer activity against human HepG2 cells assessed as reduction in cell viability. Type of test: functional, cell-based.
Another test deals with SW480. The test is described as follows: Cytotoxicity against human SW480 cells assessed as reduction in cell viability incubated for 72 hrs by celltiter glo assay. As to conditions: SW480, 72 h. Type of test: functional, cell-based. (ATP-based viability assays read luminescence as a measure of living cells.)

Each structure is given as a SMILES string.

In general, GI50 refers to the concentration at which growth is held to half of that of the control. `COc1ccc(Cc2cc(OC)c(OC)c(OC)c2)cc1O`: halving of growth in the test with HCT-116 [1] (GI50) required 6000 nM. Regarding `COc1cc(C(C)c2ccc3c(ccn3C)c2)cc(OC)c1OC` (stereo not drawn), growth with HCT-116 [2] was halved (GI50) at 29 nM. In the case of `COc1ccc(C(c2cc(OC)c(OC)c(OC)c2)C(F)F)cc1O` (stereo not drawn), the GI50 with HCT-116 [2] and with HCT-116 [1] was 30 nM throughout. For orientation: IC50 means the concentration that gives 50% inhibition. On to `CN(c1ccc2c(ccn2C)c1)c1cc(C(F)(F)F)nc2ccccc12`, for which, in the test on HCT-116 [3], the half-inhibitory concentration (IC50) came to 3 nM. Regarding `Cc1cc(N(C)c2ccc3c(c2)c2ccccc2n3C)c2ccccc2n1`, the IC50 in the test with A2780 was 0.28 nM; with MIA PaCa-2, 0.28 nM; with K562, 0.28 nM; with JIMT-1 it was 0.28 nM; in the test with A2780cisR it was 0.24 nM. As for `CN(c1ccc2c(c1)c1ccccc1n2C)c1cc(Cl)nc2ccccc12`, in the test on HCT-116 [3], the 50% inhibitory concentration (IC50) was found to be 16 nM. As to `COc1ccc(N(C)c2cc(C)nc3ccccc23)nc1N`, in the test with HCT-116 [3], the IC50 is 1 nM. `CN(c1ccc2c(c1)c1ccccc1n2C)c1nc(Cl)nc2ccccc12`: the IC50 in the test on HCT-116 [3] is 1 nM. Take `Cc1nc(N(C)c2ccc3c(c2)c2ccccc2n3C)c2ccccc2n1`: the IC50 in the test on HCT-116 [3] was 2 nM. In the case of `COc1cccc2c(N(C)c3ccc4c(c3)c3ccccc3n4C)cc(C)nc12`, the IC50 in the test on HCT-116 [3] was found to be 21 nM. As to `Cc1cc(N(C)c2ccc3c(n2)OCCO3)c2ccccc2n1`, the IC50 with HCT-116 [3] was 20 nM; with A2780cisR, 0.28 nM. For the compound `COc1cc(CCc2ccc(OC(F)F)c(OP(=O)(O)O)c2)cc(OC)c1OC`, in the test on HeLa [4], the IC50 was 110 nM. With `COc1ccc(C(C)c2cc(OC)c(OC)c(OC)c2)nc1` (stereo not drawn), the GI50 with HCT-116 [2] is 60 nM. For the compound `COc1cc(CCc2ccc(OCCF)c(O)c2)cc(OC)c1OC`, in the test on HepG2 [5], the IC50 turned out to be 72.8 nM. Moreover, the Activity in the test on HepG2 [6] worked out at 80.94%. As to `COc1cc(CCc2ccc(OC(=O)CCn3cc(F)c(=O)[nH]c3=O)c(O)c2)cc(OC)c1OC`, in the test with HepG2 [5], the IC50 is > 500 nM. For `COc1ccc(CCc2cc(OC)c(OC)c(OC)c2)cc1OC(=O)CCC(=O)Oc1cc(CCc2cc(OC)c(OC)c(OC)c2)ccc1OC`, the IC50 with HL-60 stood at 82 nM. As for `CCOc1cc(C(C)c2ccc(OC)c(N)c2)ccc1OC` (stereo not drawn), in the test on HCT-116 [1], the GI50 came out at 6000 nM. In the case of `COc1ccc(CCc2cc(OC)c(OC)c(OC)c2)cc1N`, the IC50 in the test on HeLa [7] worked out at 160 nM.

For the compound `COc1ccc(CCc2cc(OC)c(OC)c(OC)c2)cc1OC(=O)CCCCCNC(=O)CCCC[C@@H]1SC[C@@H]2NC(=O)N[C@@H]21`, the IC50 in the test on HeLa [8] amounted to 26 nM. In the test with HepG2 [9], `COc1ccc(CCc2cc(OC)c(OC)c(OC)c2)cc1OC(=O)c1cncc(Cl)c1` had an IC50 of 32.4 nM. In the test on HeLa [10], `COc1cc(CCc2ccc(C(C)(F)F)cc2NC(=O)CN)cc(OC)c1OC` yielded an IC50 of 50 nM. On to `COc1ccc(C(C)c2cc(C)c(OC)c(OC)c2)cc1OP(=O)(O)O` (stereo not drawn), for which, in the test on HCT-116 [2], growth was halved (GI50) at 100 nM. Take `COc1ccc(CCc2cc(OC)c(OC)c(OC)c2)cc1OC(=O)c1c[nH]c2ccccc12`: the IC50 in the test with HepG2 [11] is > 500 nM.

Take `COc1cc(CCc2ccc(OC(F)F)c(O)c2)cc(OC)c1OC`: the IC50 with SW480 was 180 nM. For `COc1ccc(CCc2cc(OC)c(OC)c(OC)c2)cc1OC(=O)c1ccsc1`, the IC50 with HepG2 [11] was > 500 nM. In the test on HCT-116 [1], `COc1cc(OC)cc(C(C)c2ccc(OC)c(N)c2)c1` (stereo not drawn) returned a GI50 of 300 nM. On to `COc1ccc(CCc2cc(OC)c(OC)c(OC)c2)cc1OC(=O)CCC(=O)O`, for which the IC50 in the test with HL-60 was 48 nM. Regarding `COc1ccc(CCc2cc(OC)c(OC)c(OC)c2)cc1OC(=O)c1cncnc1`, in the test with HepG2 [11], the IC50 is > 500 nM. With `CCOc1ccc(CCc2cc(OC)c(OC)c(OC)c2)cc1N`, the IC50 in the test on HeLa [7] was 200 nM.

As for `CCOc1ccc(CCc2cc(OC)c(OC)c(OC)c2)cc1O`, in the test on HeLa [7], the IC50 amounted to 110 nM. Consider `COc1ccc(CCc2cc(OC)c(OC)c(OC)c2)cc1OC(=O)c1cnc(C)nc1`, for which, in the test on HepG2 [11], the IC50 is > 500 nM.

For `COc1cc(CCc2ccc(OC(C)(F)F)cc2N)cc(OC)c1OC`, in the test on HeLa [10], the IC50 came out at 460 nM. `COc1ccc(CCc2cc(OC)c(OC)c(OC)c2)cc1OC(=O)c1cccnc1`: the IC50 in the test with HepG2 [11] was > 500 nM.

`CN(c1ccc2c(ccn2C)n1)c1nc(Cl)nc2ccccc12`: the IC50 with A2780, in the test on MIA PaCa-2, in the test on K562 and in the test with JIMT-1 was 0.24 nM throughout. With `COc1ccc(C(C)c2cc(OC)c(OC)c(OC)c2)cc1N` (stereo not drawn), the GI50 with HCT-116 [2] is 60 nM; with HCT-116 [1], 28 nM. Regarding `COc1ccc(C(CC#N)c2cc(OC)c(OC)c(OC)c2)cc1O` (stereo not drawn), the GI50 with HCT-116 [2] and with HCT-116 [1] was 50 nM in each case. As to `COc1ccc(CCc2cc(OC)c(OC)c(OC)c2)cc1OC(=O)c1cscn1`, the IC50 with HepG2 [11] is > 500 nM.

For `COc1cc(CCc2ccc(OC(C)(F)F)cc2[N+](=O)[O-])cc(OC)c1OC`, in the test with HeLa [10], it took 130 nM to reach half-maximal inhibition (IC50). For `COc1cc(CCc2ccc(OC(C)(F)F)cc2)cc(OC)c1OC`, it took 110 nM to reach half-maximal inhibition in the test on HeLa [10] (IC50). On to `CCCOc1ccc(CCc2cc(OC)c(OC)c(OC)c2)cc1O`, for which the IC50 in the test on HepG2 [5] was > 2000 nM. Consider `COc1cc(CCc2ccc(OC(F)F)c(NC(=O)CN)c2)cc(OC)c1OC`, for which the IC50 with HeLa [4] was found to be 70 nM. In the case of `COc1ccc(CCc2cc(OC)c(OC)c(OC)c2)cc1OC(=O)c1ccoc1`, in the test on HepG2 [11], the IC50 was > 500 nM. Take `COc1ccc(CCc2cc(OC)c(OC)c(OC)c2)cc1OC(=O)c1ccnnc1`: the IC50 in the test on HepG2 [11] is > 500 nM. In the test on HepG2 [9], `COc1ccc(CCc2cc(OC)c(OC)c(OC)c2)cc1OC(=O)c1cncc(Br)c1` gave an IC50 of 13.5 nM. Take `COc1ccc(CCc2cc(OC)c(OC)c(OC)c2)cc1OC(=O)CCCC[C@H]1SC[C@H]2NC(=O)N[C@H]21`: the IC50 with HeLa [8] is 494 nM. `COc1ccc(/C=C\c2cc(OC)c(OC)c(OC)c2)cc1O` [COMBRETASTATIN A4]: in the test on SW480, the IC50 turned out to be 270 nM.
